The values that follow come from patent publication US10196417B2, “Baicalin magnesium compound and its preparation method and application” (CHENGDE MEDICAL UNIVERSITY, priority 2016, dated 2019).

A word on the solubility: it is how much of the substance goes into solution per volume. Lower therefore signals a poorly soluble substance.

In brackets after ≈: the same amount, converted by molar mass. Marks after values point to notes of the source that are not given here.

Series [1] deals with xylene-induced ear swelling in mice. In words: Anti-inflammatory activity: xylene-induced ear swelling. The format is in vivo. The settings on record: n = 8. Here is the method:
144 healthy mice were randomly divided into 3 groups, a baicalin group, a baicalin magnesium group and a control group. Each group was divided into six subgroups each having 8 mice according to time points (1 h, 3 h, 5 h, 7 h, 11 h and 15 h). Mice in the baicalin group were orally administrated (ig administration) at a dose of 100 mg·kg-1; mice in the baicalin magnesium group were orally administrated (ig administration) at a dose equivalent to 100 mg·kg-1 of baicalin; and mice in the control group were administrated with the same volume of normal saline. At 40 minutes before each time point, 100 μl of xylene was dropped in left ears of the mice in each group; when at a time point, the animals were sacrificed. Auricles of both ears of the mice were obtained with a puncher, and the difference in weight (swelling degree) between the left ear and the right ear was used as an indication of the anti-inflammatory effect of the drug.

In series [2] the test system is acetic acid-induced pain in mice. Kind of series: Analgesia: acetic acid-induced writhing. The format is in vivo. The note with it: 0.067 g/kg (baicalin equivalent) intragastric once per day 7 days; for Analgesia %: vs blank control; for Number of writhing: writhing within 15 minutes after 0.6% acetic acid i.p. Here is the method: 40 mice, 20-22 g in weight, were randomly divided into 4 groups each having 10 mice, a baicalin (0.067 g/kg) group, a baicalin magnesium (equivalent to 0.067 g/kg of baicalin) group, a blank control group (administrated with normal saline), and an aspirin positive control group (0.15 g/kg). The mice were intragastrically administrated once per day for successive 7 days. After 30 minutes of final administration, the mice were intraperitoneally injected with 0.6% acetic acid saline solution at a dose of 0.2 mL/10 g; the number of writhing responses in the mice within 15 minutes was counted. Analgesia % was calculated as follows: Analgesia %=[(average number of writhing responses of the blank control group−average number of writhing responses of the drug administration group)/average number of writhing responses of the blank control group]×100%. Single-factor variance analysis was performed on data by the SPSS19.0 statistical software, and P<0.05 was of statistical significance.
In general terms: An intraperitoneal irritant provokes the stretching counted in writhing tests.

A short description of series [3]: Water solubility at 37° C. (equilibrium solubility method). The format is physicochemical. The note with it: for solubility: 37 °C, thermodynamic from solid. Here is the method:
The solubility of the baicalin and the solubility of the baicalin magnesium in water at 37° C. were measured by a conventional solubility measurement method.

Series [4] deals with streptozotocin-induced diabetes rats (high-fat diet). Kind of series: Antidiabetic effect: blood glucose in streptozotocin-induced diabetes. The settings on record: 80 mg/kg baicalin or equivalent intragastric daily. Type of series: in vivo, SD male rats. As to the method:
Healthy SD male rats aged 6 to 8 weeks were randomly divided into 4 groups, a high-fat diet control group, a diabetes control group, a baicalin treatment group and a baicalin magnesium treatment group. The rats were raised for 1 week in advance. In the second week, all rats were fed with high-fat diet. After six weeks, the rats were fasted but with water for 12 hours. For the diabetes control group, the baicalin treatment group and the baicalin magnesium treatment group, rats were administrated by tail vein injection with 45 mg/kg of streptozotocin prepared from citrate buffer solution (pH=4.5). After 3 to 7 days, the fasting blood glucose was measured. The blood glucose level greater than 13 mmol/L was a criterion for the successful diabetes rate model. The rats in the high-fat diet control group were administrated by tail vein injection with the citrate buffer solution. After the model was built, the rats were intragastrically administrated in the morning every day. The rats in the baicalin group were administrated with baicalin at a dose of 80 mg/kg; the rates in the […] were administrated with baicalin magnesium at a dose equivalent to 80 mg/kg of baicalin; and the rats in the diabetes model group and the high-fat diet control group were intragastrically administrated the same volume of solvent once every day and for successive 6 weeks. After the molding and the administration, the blood glucose was measured in the third week and the sixth week. Single-factor variance analysis was performed on data by SPSS19.0 statistical software, and P<0.05 was of statistical significance.

Series [5] concerns mice with cerebral ischemia. Kind of series: Learning and memory function in mice with cerebral ischemia (water maze test). The format is in vivo. The settings on record: i.p. 12.5 mg/kg baicalin or equivalent for 12 days after carotid clipping 20 min. Here is the method: 80 healthy mice were randomly divided into 4 groups each having 20 mice, a model group, a sham-operation group, a baicalin group and a baicalin magnesium group. For the model group, mice were intraperitoneally injected with 1% of pentobarbital sodium for anesthesia, and then the left and right common carotid arteries were exposed and separated. The left and right arteries were immediately clipped with a vessel clamp for 20 minutes. The vessel clamp then were released; arteries were sutured; and the mice were put back in the cage for breeding. For the sham-operation group, the left and right common carotid arteries were exposed by the same method as above but without clipping. The left and right arteries were sutured, and the mice were put back in the cage for breeding. For the baicalin group, the operation was the same as that for the model group, and on the second day after the operation the mice were intraperitoneally injected with 12.5 mg/kg of baicalin for successive 12 days. For the baicalin magnesium group, the operation was the same as that for the model group, and on the second day after the operation the mice were intraperitoneally injected with baicalin magnesium (at a dose equivalent to 12.5 mg/kg of baicalin) for successive 12 days. The mice in the sham-operation group and the model group were administrated with the same volume of normal saline. Water Maze Test: a circular water tank for test was 120 cm in diameter and 60 cm in height; a cylindrical platform was 10 cm in diameter and 40 cm in height; and an interior of the circular water tank was black. A camera connected to a display was provided to record the movement of mice. During the test, the water depth was 12 cm, and the water temperature was (25±2) ° C. All space signs around the maze remained unchanged throughout the test. Water Maze Test for Memory: on the day before the beginning of the test, each of mice were familiar with the water environment in the maze for 2 minutes. The mice were randomly placed in water close to walls of maze from four different quadrants (North, West, South and East, in one period of time), and the time from the mice entering water to climbing on the platform was recorded as an escape latency. […] The mice were continuously trained for 15 days at a frequency of two times of training per day. Each group of animals was subjected to a water maze test in turn. The path on the first day had two blind ends; the path on the second day had three blind ends; and the path on the third day, the fourth day and the fifth day had four blind ends. The mice were placed in water toward the walls, and the time from the mice entering water to arriving at the platform (latency) and the number of entering the blind ends were recorded. […]

Where [6] appears, read: 1 h after oral 100 mg/kg baicalin or equivalent.
[7] abbreviates: 3 h after oral 100 mg/kg baicalin or equivalent.
The mark [8] stands for this setting: 5 h after oral 100 mg/kg baicalin or equivalent.
[9] abbreviates: 7 h after oral 100 mg/kg baicalin or equivalent.
[10] abbreviates: 11 h after oral 100 mg/kg baicalin or equivalent.
[11] abbreviates: 15 h after oral 100 mg/kg baicalin or equivalent.
[12] abbreviates: 0 (after the molding, start of administration).

On to `O=C(O)C1O[C@@H](Oc2cc3oc(-c4ccccc4)cc(=O)c3c(O)c2O)C(O)[C@@H](O)[C@@H]1O` (some centres unmarked) [Baicalin Magnesium, baicalin magnesium], for which the “Ear swelling degree (difference in weight left vs right ear)” value is recorded as 5.87 ± 2.05*^Δ mg in series [1] (setting [6]); 4.57 ± 3.56 mg in series [1] (setting [7]); 4.63 ± 2.78 mg in series [1] (setting [8]); 5.87 ± 3.43 mg in series [1] (setting [9]); 6.77 ± 3.75*^Δ mg in series [1] (setting [10]); 7.97 ± 2.85^Δ mg in series [1] (setting [11]). The Analgesia % in series [2] is recorded as 60.6*^Δ %. Further, the Number of writhing in series [2] was 10.43 ± 3.56*^Δ. In addition, the “Water solubility relative to the solubility of the baicalin” value in series [3] (37° C.) is listed as 2225 times. Further, the concentration in solution in series [3] (solubility) was 129 mg/mL (≈ 289 mM). Also, the “Blood Glucose” value is given as 22.32 ± 2.23 mmol/L in series [4] (setting [12]), 19.46 ± 3.59*^Δ# mmol/L in series [4] (3 weeks) and 17.58 ± 2.6*^Δ# mmol/L in series [4] (6 weeks). Besides, the “Escape Latency” value in series [5] is 26.54 ± 8.34*^Δ s. Further, the “Number of Errors” value in series [5] was 3.82 ± 2.12*^Δ.

With `O=C(O)[C@H]1O[C@@H](Oc2cc3oc(-c4ccccc4)cc(=O)c3c(O)c2O)[C@H](O)[C@@H](O)[C@@H]1O` [Baicalin], the “Ear swelling degree (difference in weight left vs right ear)” value is reported as 7.57 ± 3.05 mg in series [1] (setting [6]); 4.66 ± 2.76 mg in series [1] (setting [7]); 4.88 ± 1.99 mg in series [1] (setting [8]); 6.77 ± 2.54 mg in series [1] (setting [9]); 7.89 ± 2.98 mg in series [1] (setting [10]); 9.12 ± 1.98 mg in series [1] (setting [11]). Moreover, the Analgesia % in series [2] is on record as 33.7* %. The Number of writhing in series [2] is reported as 17.54 ± 4.44. This compound showed a solubility in series [3] of 0.058 mg/mL (≈ 0.13 mM). Moreover, the “Blood Glucose” value in series [4] (setting [12]) was determined as 23.54 ± 2.5 mmol/L; in series [4] (3 weeks), 21.45 ± 2.6 mmol/L; in series [4] (6 weeks) it was 20.14 ± 2.6 mmol/L. Besides, the “Escape Latency” value in series [5] is 38.88 ± 11.99 s. In addition, the “Number of Errors” value in series [5] worked out at 4.56 ± 3.78.
